The test system of data set [1] is mice. In words: Footshock (fighting episodes of pairs of mice). It is filed as in vivo. The settings on record: Mus musculus; pairs of mice pretreated 1 hour prior to second shocking; 3 out of 3 pairs blocked from fighting; read-out: Footshock, 100% blocking dose. How it is done:
A pair of mice is confined under a one liter beaker placed on a grid which presents shock to the feet. At least 5 fighting episodes are elicited in a two-minute period. Pairs of mice are marked and pretreated 1 hour prior to a second shocking. Logarithmic dose intervals are utilized up to a maximum of 100 mg/kg. At the 100% blocking dose, 3 out of 3 pairs must be blocked from fighting.

Data set [2] has as its system male mice. As to the kind of experiment: Inclined Screen (paralyzing effects). It is filed as in vivo. The settings on record: Mus musculus; groups of 6 male mice; at least 4 hours observation; maximum dose 500 mg/kg; read-out: Inclined Screen, PD50. The method, then:
Groups of 6 male mice are given the test drug (maximum dose of 500 mg/kg) and then are left on the inclined screen at least 4 hours for observation of paralyzing effects severe enough to cause them to slide off the screen. If activity is observed, additional doses are taken until at least two are reached at which some, but not all of the animals slide off the screen. Doses at which mice fall off the screen due to toxicity or excitation are not included in the calculation of PD50.

Data set [3] has as its system Cats. In words: Unanesthetized Cat (minimum symptoms, usually ataxia). The following applies: Felis catus, oral, up to three cats/dose. It counts as in vivo. How it is done: Cats are treated orally and observed for minimum symptoms-usually ataxia. One cat is used at a dose of 50 mg/kg. If activity is present, up to three cats/dose are used. Results are given as minimum effective dose.

Data set [4] is described as follows: Toxicity (LD50). The following applies: in vivo, po.

These results are taken from patent US4354973A, “Pyrrolo[3,4-d][2]benzazepines” (Hoffmann-La Roche Inc., priority 1981, dated 1982).

As usually defined, the minimal effective dose is the lowest level tested that produced the effect sought. The low end stands for greater potency, the high end for weaker potency. Broadly, the LD50 is the dose expected to kill half of the subjects tested. Turning to `Clc1ccc2c(c1)C(c1ccccc1Cl)=NCc1c[nH]cc1-2` [8-Chloro-6-(2-chlorophenyl)-2H,4H-pyrrolo[3,4-d][2]benzazepine], the ED100 in data set [1] was determined as 1 mg/kg. The ED50 in data set [2] was determined as 400 mg/kg. The minimal effective dose in data set [3] came to 0.25 mg/kg. Besides, in data set [4], the LD50 is greater than 1000 mg/kg.
`CS(=O)(=O)O.Cc1[nH]cc2c1-c1ccc(Cl)cc1C(c1ccccc1F)=NC2` [8-Chloro-6-(2-fluorophenyl)-1-methyl-2H,4H-pyrrolo[3,4-d][2]benzazepine methanesulfonate]: in data set [1], the ED100 was 2 mg/kg. Also, in data set [2], the ED50 came out at 400 mg/kg. Also, the minimal effective dose in data set [3] amounted to 2.5 mg/kg. In data set [4], the LD50 was greater than 1000 mg/kg.
With `Clc1ccc2c(c1)C(c1ccccc1)=NCc1c[nH]cc1-2` [8-Chloro-6-phenyl-2H,4H-pyrrolo[3,4-d][2]benzazepine], the ED100 in data set [1] stood at 25 mg/kg. Moreover, the ED50 in data set [2] was 400 mg/kg. Besides, the minimal effective dose in data set [3] came to 2.5 mg/kg. In data set [4], this compound yielded an LD50 greater than 1000 mg/kg.
